Results as given in US12486227B2, “Small molecules for cancer therapy that reduce the expression of transcription factors KLF5 and EGR-1” (University of Florida Research Foundation, Incorporated, priority 2019, dated 2025).
pEC50: −log10 of the molar value. Like-named read-outs stand apart in the source and are kept apart here.

Columns and labels:
DLD-1-derived xenografts = assay: Histology, immunofluorescence and immunohistochemistry of DLD-1-derived xenografts; type: in vivo, mouse
Description: (§1) SR18862 inhibits the growth of CRC xenografts in vivo. To evaluate SRI8662 in an in vivo model we used CRC cells for a mouse xenograft study. As described in more detail in the Examples section, nude mice were injected with DLD-1 CRC cells. Tumors were allowed to grow to an approximate size of 100 mm^3, and then mice were injected with vehicle or with varied concentrations of SR18662, given once a day or twice a day for five days, followed by two days without injection, and then followed by five days with injections. The experiment was completed the day after the last injection. […] Significant differences in tumor size are apparent at the end of the treatment schedule (FIG. 6B). To further characterize the impact of SR18662 on the features of isolated tumors, we compared vehicle-treated mice with mice that had been treated with SR18662 twice a day. […] Because SR18662 had induced cell apoptosis and death in the in vitro setting, we stained the xenografts with PanCK and TUNEL to estimate the levels of apoptosis in the in vivo context.
Immunofluorescence and immunohistochemistry. Tumors dissected from mice were first fixed in Bouin's fixative (50% ethanol+5% acetic acid in water) for 1 h, then fixed overnight in 10% buffered formalin (Fisher Scientific). The tissues were then paraffin-embedded using an automated processor, sectioned at 5 μm, collected onto charged slides and baked in a 65° C. oven overnight, and were subsequently deparaffinized in xylene. […]
Tissue sections were first incubated with blocking buffer (5% BSA in TBS-Tween) for 30 min at 37° C. and then with primary antibody at 4° C. overnight in a humidified chamber with gentle shaking. […] Slides were analyzed under a Nikon Eclipse 90i microscope (Nikon) and representative photomicrographs were taken. […]

[1] = Oral bioavailability in mice; type: in vivo
DLD-1 cells = assay: Apoptosis assay (Annexin V/PI, FACS), DLD-1; type: cell-based, human
Description: We performed an apoptosis assay using DLD-1 and HCT116 cells treated with vehicle or 1 μM or 10 μM of test compounds over the course of three days with Annexin V/P1 stain in combination with FACS analysis. […] This is accompanied by an increase in the population of cells in early and late apoptosis, as well as an increase in the dead cell population over the three days of treatment. […] This effect was more pronounced upon treatment with SR18662 than ML264 or SR15006 (FIGS. 4D-F). When a lower concentration (1 μM) of test compounds was used, only a small increase of the population of cells undergoing early apoptosis was seen after 72 h treatment with SRI8662.
Cell proliferation, cell cycle and apoptosis assays. For cell proliferation experiments, cell cycle, and apoptosis determination, DLD-1 and HCT116 cells were treated with 1 or 10 μM of each compound or with vehicle (DMSO). The cells were collected at 24, 48, and 72 h post-treatment and analyzed as previously described (24). Each experiment was performed in triplicate.

[2] = system: DLD-1-derived tumor xenografts; assay: DLD-1 xenograft tumor growth in nude mice; type: in vivo, mouse
Description: as §1
Xenografts. All mice studies were approved by the Stony Brook University Institutional Animal Care and Use Committee (IACUC) and performed in accordance with institutional policies and NIH guidelines. […] Tumor volume was determined by caliper measurement and calculated by the established method (25). […] Mice were monitored and weighed every two days. […]

DLD-1 colon cancer cells = assay: MTT viability assay, DLD-1; type: cell-based; conditions: Homo sapiens
Description: Specific Examples of compounds of the present disclosure have EC50 values estimated using a cell-based assay for binding to the KLF5 promoter and, in many cases, a follow-up viability assay (MTT) using DLD-1 colon cancer cells, a cell line known to highly express KLF5 and whose growth is adversely affected by the reduction of KLF5 levels. Assay protocols follow those described in the literature.^22,23 Other assays that are not described here but that are standard in the field may also be useful in establishing mechanism of action of these compounds.

[3] = 25 mg/kg twice per day vs vehicle

- oral bioavailability [1]: orally bioavailable
- EC50 (DLD-1 colon cancer cells; MTT, Table 1, read-out: EC50 (nM) DLD-1): 1.7 nM
- pEC50 (DLD-1 colon cancer cells; Table 2, read-out: Approximate potency (EC50 · mol/L) (DLD1, MTT assay)): 8.77
SMILES: CS(=O)(=O)N1CCN(C(=O)CNC(=O)/C=C/c2ccc(Cl)c(Cl)c2)CC1 [Example 9, (E)-3-(3,4-dichlorophenyl)-N-(2-(4-(methylsulfonyl)piperazin-1-yl)-2-oxoethyl)acrylamide]
- expression levels of KLF5 and EGR1 in xenografts (DLD-1-derived xenografts; 25 mg/kg twice a day, immunohistochemistry): significantly decreased
- TUNEL staining in xenografts (DLD-1-derived xenografts; [3]): increase of TUNEL staining
- fibrosis (PanCK/Vimentin stain) in xenografts (DLD-1-derived xenografts; [3]): higher level of fibrosis
- healthy cell count and apoptosis (DLD-1 cells; DLD-1, 1 μM, 48 h and 72 h): decrease in healthy cell count at 48 h and 72 h and an increase in early and late apoptosis
- population of healthy cells (DLD-1 cells; DLD-1, 10 μM, 48 and 72 h): significant decrease in the population of healthy cells
- tumor growth vs vehicle-treated mice ([2]; i.p., 5-25 mg/kg once or twice a day): dose-dependent reduction in tumor growth
- growth of CRC xenografts ([2]; once a day 10 mg/kg): strong inhibitory effects
